In US20220356169A1, “TETRAZINES FOR HIGH CLICK RELEASE SPEED AND YIELD” (priority 2019, published 2022):

Columns and labels:
ADC AVP0458-TCO-MMAE = test: Triggered drug (MMAE) release from ADC in 50% mouse plasma, HPLC-SIM-MS; details: 24 h; 50% mouse plasma, 37° C.; mean ± SD (n = 3)
Protocol: In a 1.5 mL vial, the following was combined: 650 μL mouse plasma, 600 μL PBS, 20 μL ADC (1.62 μg/μL in PBS) and 7.5 μL d8-MMAE solution (0.167 μg/μL, internal standard). Next, aliquots of 20 μL were prepared to which 5.2 μL of a tetrazine solution (0.25 mM in 1:1 DMSO/H2O) was added and the solution was incubated at 37° C. At various times, 100 μL of cold MeCN was added to the aliquot and the mixture was vortexed, stored at 4° C. for 30 min. and centrifuged. 20 μL of supernatant was taken and combined with 100 μL of 1% formic acid (aq) solution. This sample was analysed with HPLC-SIM-MS to quantify the ratio of free MMAE and d8-MMAE, which is a measure of the release yield.

[1] = Triggered release of Construct-A from TCO trigger, HPLC-MS/PDA
Protocol: At the specified time point, the sample was analyzed by HPLC-MS/PDA, and the release yield was determined from the observed amounts of IEDDA adducts, elimination product, and/or released Construct. In case the release was not complete, the sample was incubated at 37° C. for additional time and analyzed once again.

[2] = Cell proliferation assay (MTT); assay type: cell-based; details: human, 3 days incubation, mean ± SEM (n = 6), read-out: LS174T cell viability (%)
Protocol: The human colon carcinoma LS174T cell line was obtained from the American Type Culture Collection and cultured in RPMI-1640 medium supplemented with 2 mM glutamine and 10% heat inactivated fetal calf serum. Twenty-four hours prior to the experiment, the cells were plated in 96-well plates at a 5000 cells/well density. The cells were then incubated with serial dilutions (10 nM-1 μM; n=6) of activators 2.7, 2.8, 2.14, 2.16, 2.17, 2.18 and 2.19 in culture medium for 72h at 37° C. The % cell proliferation was assessed by an MTT assay, in comparison to cells incubated in culture medium without activator. No toxicity was observed when the LS174T cells were incubated with the tested activators (and possible metabolites formed in the presence of serum) for 3-days at a 0.01-1 μM activator concentration.

SMILES: Nc1cnccc1-c1nnc(-c2ccncc2N)nn1 [2.3, 4,4′-(1,2,4,5-Tetrazine-3,6-diyl)bis(pyridin-3-amine)]
- MMAE release from ADC AVP0458-TCO-MMAE, Release (%) (ADC AVP0458-TCO-MMAE): 88.5 ± 0.1%

SMILES: CC(=O)Nc1cccnc1-c1nnc(-c2ncccc2NC(C)=O)nn1 [2.2, N,N′-(2,2′-(1,2,4,5-Tetrazine-3,6-diyl)bis(pyridine-3,2-diyl))diacetamide]
- Construct release % ([1]; TCO 3.11, doxorubicin, 18 h, 37° C.): 18 h: 74%
- Construct release % ([1]; TCO 3.11, doxorubicin, 42 h, 37° C.): 42 h: 81%
- Construct release % ([1]; TCO 3.11, released construct doxorubicin, 5 min): 5 min: 4%
- Construct release % ([1]; TCO 3.23, released construct dimethylamine, 5 min): 5 min: 100%
- Construct release % ([1]; TCO 3.32, released construct dimethylamine, 5 min): 5 min: 98%
- MMAE release from ADC AVP0458-TCO-MMAE, Release (%) (ADC AVP0458-TCO-MMAE): 79.3 ± 0.4%

SMILES: Cc1nnc(C)nn1 [2.17, 3,6-bismethyl-tetrazine, reference compound]
- viability at 72 h, 0.01 μM ([2]; 0.01 μM activator): 90.2 ± 4.5%
- viability at 72 h, 0.1 μM ([2]; 0.1 μM activator): 87.9 ± 6.4%
- viability at 72 h, 1 μM ([2]; 1 μM activator): 85.7 ± 7.4%

SMILES: CC(=O)Nc1cnccc1-c1nnc(-c2ccncc2NC(C)=O)nn1 [2.4, N,N′-(4,4′-(1,2,4,5-Tetrazine-3,6-diyl)bis(pyridine-4,3-diyl))diacetamide]
- MMAE release from ADC AVP0458-TCO-MMAE, Release (%) (ADC AVP0458-TCO-MMAE): 96.0 ± 0.3%
